This is an account of results in ChEMBL document CHEMBL2417538, “Antithrombotic effects of LB30870, a potent, orally active, selective and direct thrombin inhibitor, and pharmacokinetics of its prodrug” (Bioorg Med Chem Lett, 2013).

Series [1] can be described thus: Plasma protein binding in rat at 1 ug/ml by ultra-filtration method. Format: ADME, cell-free. Particulars: read-out: PPB (converted).
Series [2] addresses Trypsin (Homo sapiens, UniProt P07477+P07478+P35030). Nature of the series: Inhibition of human trypsin. It is filed as protein assay.
For series [3], the system named is Rattus norvegicus. Nature of the series: Anticoagulant activity in Sprague-Dawley rat deep vein thrombosis model assessed as prothrombin time change at 0.25 mg/kg, iv administered as bolus and 10 ug/kg/min administered as infusion relative to control. It is filed as functional.
The test system of series [4] is Rattus norvegicus. Nature of the series: Anticoagulant activity in Sprague-Dawley rat deep vein thrombosis model assessed as wet clot weight at 0.125 mg/kg, iv administered as bolus and 5 ug/kg/min administered as infusion (reference value: 83 +/- 5.1 mg). It is filed as functional.
Series [5] relates to Rattus norvegicus. Nature of the series: Anticoagulant activity in Sprague-Dawley rat deep vein thrombosis model assessed as reduction in wet clot weight administered as iv bolus followed by infusion relative to control. Format: functional, organism-based.
The test system of series [6] is Rattus norvegicus. Nature of the series: Anticoagulant activity in Sprague-Dawley rat deep vein thrombosis model assessed as activated partial thromboplastin time change at 0.125 mg/kg, iv administered as bolus and 5 ug/kg/min administered as infusion relative to control. It is filed as functional.
Series [7] deals with Rattus norvegicus. Nature of the series: Anticoagulant activity in Sprague-Dawley rat deep vein thrombosis model assessed as activated partial thromboplastin time change at 0.044 mg/kg, iv administered as bolus and 1.75 ug/kg/min administered as infusion relative to control. It is filed as functional.
The test system of series [8] is Rattus norvegicus. Nature of the series: Anticoagulant activity in Sprague-Dawley rat deep vein thrombosis model assessed as wet clot weight at 0.044 mg/kg, iv administered as bolus and 1.75 ug/kg/min administered as infusion (reference value: 83 +/- 5.1 mg). Format: functional.
Series [9] concerns Rattus norvegicus. Nature of the series: Anticoagulant activity in Sprague-Dawley rat deep vein thrombosis model assessed as activated partial thromboplastin time change at […], iv administered as bolus and 2.5 ug/kg/min administered as infusion relative to control. It is filed as functional.
In series [10] the test system is Rattus norvegicus. Nature of the series: Anticoagulant activity in Sprague-Dawley rat deep vein thrombosis model assessed as prothrombin time change at […], iv administered as bolus and 2.5 ug/kg/min administered as infusion relative to control. It is filed as functional.
Series [11] deals with Rattus norvegicus. Nature of the series: Anticoagulant activity in Sprague-Dawley rat deep vein thrombosis model assessed as prothrombin time change at 0.044 mg/kg, iv administered as bolus and 1.75 ug/kg/min administered as infusion relative to control. Format: functional.
The subject of series [12] is Rattus norvegicus. Nature of the series: Anticoagulant activity in Sprague-Dawley rat deep vein thrombosis model assessed as prothrombin time change at 0.125 mg/kg, iv administered as bolus and 5 ug/kg/min administered as infusion relative to control. Format: functional.
The target of series [13] is Tissue-type plasminogen activator (Homo sapiens, UniProt P00750). Nature of the series: Inhibition of human t-PA.
Chain of Tissue-type plasminogen activator (P00750 whole entry): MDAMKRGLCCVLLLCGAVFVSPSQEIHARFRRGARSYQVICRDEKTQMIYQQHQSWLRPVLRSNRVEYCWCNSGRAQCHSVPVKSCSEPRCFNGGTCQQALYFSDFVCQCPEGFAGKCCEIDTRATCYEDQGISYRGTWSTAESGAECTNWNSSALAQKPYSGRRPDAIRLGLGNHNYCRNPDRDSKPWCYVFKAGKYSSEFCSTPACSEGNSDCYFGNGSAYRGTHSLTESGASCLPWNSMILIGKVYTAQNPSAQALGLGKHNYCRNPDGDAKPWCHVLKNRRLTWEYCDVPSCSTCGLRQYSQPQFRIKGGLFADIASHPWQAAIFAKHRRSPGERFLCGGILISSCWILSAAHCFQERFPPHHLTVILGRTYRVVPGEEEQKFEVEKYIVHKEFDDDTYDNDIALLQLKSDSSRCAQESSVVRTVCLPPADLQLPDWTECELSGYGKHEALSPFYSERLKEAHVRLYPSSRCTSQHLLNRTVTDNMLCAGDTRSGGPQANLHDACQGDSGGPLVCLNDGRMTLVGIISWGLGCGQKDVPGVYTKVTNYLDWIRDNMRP
Series [14] concerns the target Plasminogen (Homo sapiens, UniProt P00747). Nature of the series: Inhibition of human plasmin.
A short description of series [15]: Plasma protein binding in human at 1 ug/ml by ultra-filtration method. Particulars: read-out: PPB (converted). It is filed as ADME, cell-free.
The test system of series [16] is Rattus norvegicus. Nature of the series: Anticoagulant activity in Sprague-Dawley rat deep vein thrombosis model assessed as activated partial thromboplastin time change at 0.25 mg/kg, iv administered as bolus and 10 ug/kg/min administered as infusion relative to control. Format: functional.
Series [17] has as its system Rattus norvegicus. Nature of the series: Anticoagulant activity in Sprague-Dawley rat deep vein thrombosis model assessed as prothrombin time change at 0.025 mg/kg, iv administered as bolus and 1 ug/kg/min administered as infusion relative to control. Format: functional.
The subject of series [18] is Rattus norvegicus. Nature of the series: Anticoagulant activity in Sprague-Dawley rat deep vein thrombosis model assessed as reduction in wet clot weight at 35 ug/kg, iv administered as infusion. It is filed as functional.
The test system of series [19] is Rattus norvegicus. Nature of the series: Anticoagulant activity in Sprague-Dawley rat deep vein thrombosis model assessed as wet clot weight at […], iv administered as bolus and 2.5 ug/kg/min administered as infusion (reference value: 83 +/- 5.1 mg). Format: functional.
In series [20] the test system is Rattus norvegicus. Nature of the series: Anticoagulant activity in Sprague-Dawley rat deep vein thrombosis model assessed as activated partial thromboplastin time change at 0.025 mg/kg, iv administered as bolus and 1 ug/kg/min administered as infusion relative to control. It is filed as functional.
Series [21] deals with Coagulation factor X (Homo sapiens, UniProt P00742). Nature of the series: Inhibition of human factor 10a.
Chain of Coagulation factor X (P00742 41-179 limits assumed): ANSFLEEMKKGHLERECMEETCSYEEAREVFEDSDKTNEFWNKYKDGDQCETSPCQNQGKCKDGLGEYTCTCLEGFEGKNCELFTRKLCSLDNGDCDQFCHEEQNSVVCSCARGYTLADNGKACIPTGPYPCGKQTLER
Chain of Coagulation factor X (P00742 235-488 limits assumed): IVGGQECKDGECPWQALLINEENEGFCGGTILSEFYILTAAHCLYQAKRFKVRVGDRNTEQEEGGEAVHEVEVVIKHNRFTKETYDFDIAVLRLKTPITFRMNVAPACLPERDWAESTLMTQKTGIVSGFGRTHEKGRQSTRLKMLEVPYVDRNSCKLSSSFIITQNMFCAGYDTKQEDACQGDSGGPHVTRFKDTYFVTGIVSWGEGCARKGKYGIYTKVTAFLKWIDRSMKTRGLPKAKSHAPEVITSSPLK

Chain of Plasminogen (P00747 97-580 limits assumed): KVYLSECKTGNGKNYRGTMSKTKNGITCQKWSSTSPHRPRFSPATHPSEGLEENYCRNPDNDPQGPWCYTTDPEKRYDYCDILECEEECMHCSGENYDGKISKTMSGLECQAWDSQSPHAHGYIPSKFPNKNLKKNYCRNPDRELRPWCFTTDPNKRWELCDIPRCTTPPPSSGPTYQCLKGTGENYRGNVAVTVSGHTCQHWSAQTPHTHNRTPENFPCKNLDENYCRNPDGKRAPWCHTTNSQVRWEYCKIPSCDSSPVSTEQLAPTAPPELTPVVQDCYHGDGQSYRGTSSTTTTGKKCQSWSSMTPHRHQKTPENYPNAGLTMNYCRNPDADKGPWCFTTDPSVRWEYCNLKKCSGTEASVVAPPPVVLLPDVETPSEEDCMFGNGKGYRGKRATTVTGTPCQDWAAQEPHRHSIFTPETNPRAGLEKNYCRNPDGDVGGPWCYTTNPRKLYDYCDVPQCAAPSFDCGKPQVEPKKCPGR
Chain of Plasminogen (P00747 581-810 limits assumed): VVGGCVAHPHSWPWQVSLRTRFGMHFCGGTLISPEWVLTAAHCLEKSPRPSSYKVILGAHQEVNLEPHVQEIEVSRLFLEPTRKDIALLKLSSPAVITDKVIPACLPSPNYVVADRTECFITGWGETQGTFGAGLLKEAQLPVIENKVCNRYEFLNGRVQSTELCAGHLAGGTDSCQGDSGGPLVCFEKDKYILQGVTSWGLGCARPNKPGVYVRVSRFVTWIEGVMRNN

With `N=C(N)c1ccc(CNC(=O)[C@@H]2CCN2C(=O)[C@H](NCC(=O)O)C2CCCCC2)cc1`, the results for the fraction unbound at 1 ug/ml in [1] and in series [15] were 0.9 and 0.847, respectively. In addition, the Ki in series [2] was 4.3 nM; in series [13], 1510 nM; in [14], 1800 nM; in series [21], 3680 nM. Moreover, the “fold change (FC)” value in series [3] is recorded as 3.66; in series [6] it was 3.95; in series [7], 1.98; in [9], 1.83; in series [10], 1.46; in series [11], 1.42. Moreover, the “fold change (FC)” value worked out at 2.72 in series [12], 6.05 in series [16], 1.13 in [17] and 1.67 in [20]. Besides, the Activity in series [4] is 3.6 mg; in series [5] it was “Dose-dependent effect”; in series [8] it was 25.6 mg; in [19], 15.9 mg. Further, the median effective dose (ED50) in series [18] is 1.4 µg/kg/min.
